How the values were obtained:
[1] = Water solubility of salicylic acid by UV-VIS: loaded in γCD-MOF, without additive, or with γCD and KOH; format: physicochemical
Method: The dry, loaded CD-MOF samples were then dissolved in 10 mL water and stirred.
All water solubility shown in FIGS. 2-4 below were measured at room temperature.

[2] = cited from earlier work
[3] = 30% loading (150 mg salicylic acid) in a 500 mg γCD-MOF sample, room temperature, FIG. 3 curve 20
[4] = added directly into a solution containing equivalent amounts of γCD and KOH (500 mg sample), room temperature, FIG. 3 curve 22
[5] = un-complexed salicylic acid in the absence of a CD-MOF, room temperature, FIG. 3 curve 21

percentage of solubilized salicylic acid in 10 mL of water compared with no additive ([1]; 100 mg CD-MOF sample, loading percentage range of about 25-500%, FIG. 2 curve 10 vs curve 11)	amount of salicylic acid solubilized in 10 mL of water (maximum reached) ([1]; 500 mg CD-MOF sample used as intermediate, room temperature, FIG. 4 curve 31)	percentage of solubilized salicylic acid in 10 mL of water compared with no additive and with γCD and KOH ([1]; 500 mg CD-MOF sample, loading percentage 10-100%, FIG. 3 curve 20 vs curves 21 and 22)	amount of salicylic acid solubilized in 10 mL of water [1, 3]	percentage of solubilized salicylic acid in 10 mL of water [1, 3]	maximum amount of salicylic acid dissolved in 10 mL of water ([1]; absence of any additive, room temperature, FIG. 4 curve 33)	amount of salicylic acid solubilized in 10 mL of water [1, 4]	percentage of solubilized salicylic acid in 10 mL of water [1, 4]	amount of salicylic acid solubilized in 10 mL of water [1, 5]	percentage of solubilized salicylic acid in 10 mL of water [1, 5]	SMILES	solubility in water [2]
higher	up to 110 mg	significantly higher	about 103 mg	about 69%	about 20 mg	about 58.5 mg	approximately 39%	about 20 mg	approximately 13%	O=C(O)c1ccccc1O [salicylic acid]	–
–	–	–	–	–	–	–	–	–	–	OC[C@H]1O[C@@H]2O[C@H]3[C@H](O)[C@@H](O)[C@@H](O[C@H]4[C@H](O)[C@@H](O)[C@@H](O[C@H]5[C@H](O)[C@@H](O)[C@@H](O[C@H]6[C@H](O)[C@@H](O)[C@@H](O[C@H]7[C@H](O)[C@@H](O)[C@@H](O[C@H]1[C@H](O)[C@H]2O)O[C@@H]7CO)O[C@@H]6CO)O[C@@H]5CO)O[C@@H]4CO)O[C@@H]3CO [α-CD, α cyclodextrin]	about 145 mg/mL

Source: patent US10736967B2, “Method of preparing cyclodextrin complexes” (Panaceanano, Inc., priority 2016, dated 2020)
